Publication PMC5341405, “Lapachol, a compound targeting pyrimidine metabolism, ameliorates experimental autoimmune arthritis” (Arthritis Research & Therapy, 2017)

How the values were obtained:
[1] = system: collagen-induced arthritis (CIA) in DBA1/J mice; experiment: Collagen-induced arthritis (CIA); format: in vivo
Method: (§1) Male DBA/1 J mice were injected i.d. at the base of the tail with 200 μg bovine type II collagen (CII; a gift from Dr. David D. Brand, University of Tennessee Health Science Center) emulsified in Freund’s complete adjuvant (CFA) on day 0. Mice were boosted i.d. with CII (200 μg emulsified in Freund’s incomplete adjuvant (IFA)) on day 21. Mice were monitored daily for signs of arthritis. Scores were assigned based on erythema, swelling, or ankylosis present in each paw on a scale of 0 to 3, giving a maximum score of 12 per mouse. After arthritis induction, mice were treated orally with LAP (3 mg/kg and 10 mg/kg) or LEF (3 mg/kg) or saline daily. The clinical score was addressed every day after collagen boost. All mice were euthanized for histologic assessment of the hind limbs 4 weeks after the boost.
Femur-tibial joints were collected 4 weeks after CII boost, fixed in 4% (vol/vol) buffered formalin and decalcified in 10% EDTA for 2–3 weeks. The tissues were then trimmed, dehydrated in ethanol, and embedded in paraffin for the preparation of the slides. Histological assessment was carried out following routine staining. Joint sections were stained with hematoxylin and eosin (H&E) to analyze synovitis (inflammatory cell influx and synovial hyperplasia) or Safranin-O to visualize proteoglycan depletion and cartilage destruction. The severity of the joint damage was scored according to the criteria described by Wang et al.: 0 = no destruction; 1 = minimal erosion; 2 = slight to moderate erosion in a limited area; 3 = more extensive erosion; 4 = general destruction.
Interleukin (IL)-17 and interferon (IFN)-γ cytokines were measured by enzyme-linked immunosorbent assay (ELISA) from hind paw homogenate of an individual mouse using antibodies according to the manufacturer’s instructions (R&D Systems, Minneapolis, MN, USA). The results were expressed as pg of cytokine/mg of tissue.
Myeloperoxidase (MPO) activity in tissue homogenates was used as an index of neutrophil infiltration into paws from CIA mice as previously described.

[2] = Tolerability and serum liver enzymes during CIA protocol; format: in vivo, DBA1/J mice
Method: as §1
Serum concentrations of aspartate aminotransferase (AST) or alanine aminotransferase (ALT) were measured using commercial kits according to the manufacturer’s instructions (ID Labs Biotechnology Inc., London, Canada).

CC(C)=CCC1=C(O)C(=O)c2ccccc2C1=O [LAP, 2-hydroxy-3-(3methyl-2-butenyl)-1,4-naphthoquinone]
severity of arthritis (clinical score and number of affected paws) ([1]; 3 mg/kg and 10 mg/kg orally daily, both doses): markedly attenuated the severity of arthritis
IL-17A levels in hind paws ([1]; dose of 10 mg/kg orally daily, 4 weeks after boost, ELISA): significant reduction in IL-17A levels
MPO activity in hind paws (neutrophil infiltration) ([1]; orally daily, 4 weeks after boost, vs vehicle-treated CIA mice): reduced MPO activity
histopathological features of arthritis severity (H&E, Safranin-O, knee joint) ([1]; orally daily, 4 weeks after boost, vs vehicle-treated group): markedly reduced all histopathological features of arthritis severity
serum levels of ALT or AST ([2]; 3 mg/kg and 10 mg/kg orally daily, CIA protocol, 4 wk after boost): did not alter the serum levels of ALT or AST
tolerability (general symptoms of toxicity: piloerection, diarrhea, weight loss, prostration) ([2]; 3 mg/kg and 10 mg/kg orally once a day for 4 weeks, CIA mice): well tolerated without apparent side effects
